Laboratory results as given in patent US6900351B2, “Aminopolycarboxylates, process for producing the same and use thereof” (Tosoh Corporation, priority 2000, dated 2005).

Assay: Chelatability (constant of calcium ion stability) test with calcium ion electrode
Format: physicochemical
Settings: 25° C., pH 10, 1 mmol/l chelating agent with equivalent 1 mmol/l calcium chloride
Method: To 1 mmol/l aqueous solution of this sodium aminopolycarboxylate, an equivalent amount of a 1 mmol/l aqueous solution of calcium chloride was added. Then the constant of calcium ion stability (pKCa^2+) was determined by measuring the calcium ion concentration at pH 10.0 by using a calcium ion electrode.
(1) Formation of Calibration Curve
By using calcium chloride, solutions having calcium concentrations of 0.1 mmol/l, 1.0 mmol/l and 10 mmol/l were prepared and the potential of each solution was measured. Based on the data thus obtained, a calibration curve of the logarithmic calcium ion concentration vs. potential was formed.
(2) Measurement of Constant of Stability
An aqueous solution (100 ml) was prepared by adding a chelating agent (1 mmol/l) and calcium chloride (1 mmol/l) at an equivalent ratio to an aqueous solution containing 0.1 mmol/l of ammonium chloride to achieve a constant ionic strength. After stirring this solution for 10 minutes, the potential of the solution at 25° C. at pH 10 was measured. Based on the calibration curve formed in (1), the calcium ion concentration corresponding to the potential thus measured was determined and the constant of stability was calculated on the assumption that the sample and calcium ion formed a complex at a ratio of 1:1.

- constant of calcium ion stability (pKCa2+): 3.8
Compound: O=C([O-])CC(NCCNC(CC(=O)[O-])C(=O)O)C(=O)[O-].[Na+].[Na+].[Na+] (stereo not shown) [trisodium N,N′-ethylenediaminedisuccinate, reference compound]
